Test results published in patent US11345673B2, “1-phenylpropanone compounds and use thereof” (UNIVERSITA' DEGLI STUDI DI PADOVA, priority 2016, dated 2022).

How the values were obtained:
Assay type in all cases: cell-based
[1] = test system: hepatocarcinoma (HUH7.5) cells; test: Proapoptotic effect by flow cytofluorometry, HUH7.5 cells; conditions: Homo sapiens, 24 hours incubation, three experiments in triplicate, read-out: IC50 ± S.D. (concentration required to cause 50% apoptosis), HUH7.5
From the text: (§1) Flow cytofluorometry was used to evaluate the ability of some compounds of the invention to induce cell death, with particular reference to apoptosis. This latter phenomenon is characterized by morphological modification of the plasmatic membrane as a result of the translocation of the phospholipid phosphatidylserine (PS) in the plasmatic membrane from the cytoplasmic side to the outer surface of the cell. […] Annexin is detected because it is conjugated to a specific fluorochrome, thus allowing to distinguish apoptosis from necrotic phenomena, which are instead measured by the fluorescent dye propidium iodide, which penetrates freely in the cell having a damaged plasmatic membrane.
(§2) Both primary lymphocytic tumor cells taken from patients with chronic lymphatic leukemia (LLC) and humanized cell lines of neuroblastoma (SK-N-BE), hepatocarcinoma (HepG2 and HUH7.5) and breast cancer (MDA-MB-231) were used.
(§3) HepG2 (2×10^5 cells per well), HUH7.5 and MDA-MB-231 (1.5×10^5 cells per well) cells were seeded on a 6-well plate in Dulbecco's Modified Eagle Medium (DMEM), 10% FBS and cultured at 37° C. in a 5% CO2 atmosphere. After 24 hours, the medium was removed and replaced by DMEM containing the test compounds, previously dissolved in 100% dimethylsulfoxide, and diluted such that the final concentration of the same in cell incubation solutions was 0.5% (v/v). After 30 minutes incubation, 10% FBS was added, and the cells were incubated for 24 hours, then detached with trypsin, and analyzed by cytofluorimeter. LLC cells (1×10^6 cells per well) were seeded and cultured on 12-well plates in RPMI-1640 medium, 10% FBS, at 37° C. in a humified atmosphere containing 5% CO2. To this medium, test compounds were added, and incubation was carried out for 24 hours, after which time the cells were analyzed by cytofluorimeter.
(§4) The results obtained by cytofluorometry from three separate experiments executed in triplicate were tabulated, estimating the concentration required to cause 50% apoptosis (IC50), and standard deviation.

[2] = test system: breast cancer (MDA-MB-231) cells; test: Proapoptotic effect by flow cytofluorometry, MDA-MB-231 cells; conditions: Homo sapiens, 24 hours incubation, three experiments in triplicate, read-out: IC50 ± S.D. (concentration required to cause 50% apoptosis), MDA-MB-231
From the text: as §1, §2, §3, §4

[3] = test system: hepatocarcinoma (HepG2) cells; test: Proapoptotic effect by flow cytofluorometry, HepG2 cells; conditions: Homo sapiens, 24 hours incubation, three experiments in triplicate, read-out: IC50 ± S.D. (concentration required to cause 50% apoptosis), HepG2
From the text: as §1, §2, §3, §4

[4] = test system: primary lymphocytic tumor cells taken from patients with chronic lymphatic leukemia (LLC); test: Proapoptotic effect by annexin V/propidium iodide flow cytofluorometry, LLC cells; conditions: Homo sapiens, 24 hours incubation, three experiments in triplicate, read-out: IC50 ± S.D. (concentration required to cause 50% apoptosis), LLC
From the text: as §1, §2, §3
Leukemic lymphocytes were isolated, following heparinized venous withdrawal from peripheral blood of LLC patients, diluted with saline in a 1:3 ratio, layered on a Ficoll/Hypaque (F/H) density gradient, centrifuged at 900 rpm for 20 minutes, at 20° C. without brakes. Mononuclear cells and platelets, concentrating on top of the F/H gradient, were separated after 2 further washings, with centrifugation at 400 rpm at room temperature. The mononuclear cells thus obtained were washed 3 times with PBS, centrifuged for 10 minutes at 400 rpm, at 20° C. with brakes, and resuspended in RPMI 1640.
In most LLC cases, the percentage of leukemic B cells was higher than 85% with respect to all mononuclear cells from peripheral blood.
as §4

[5] = test system: neuroblastoma (SK-N-BE) cells; test: Proapoptotic effect by flow cytofluorometry, SK-N-BE cells; conditions: Homo sapiens, three experiments in triplicate, read-out: IC50 ± S.D. (concentration required to cause 50% apoptosis), SK-N-BE
From the text: as §1
Both primary lymphocytic tumor cells taken from patients with chronic lymphatic leukemia (LLC) and humanized cell lines of neuroblastoma (SK-N-BE), hepatocarcinoma (HepG2 and HUH7.5) and breast cancer (MDA-MB-231) were used. […]
as §4

Row | IC50 [1] | IC50 [2] | IC50 [3] | IC50 [4] | IC50 [5] | SMILES
1 | 1.58 ± 0.07 µM | 1.61 ± 0.08 µM | 1.67 ± 0.15 µM | 1.61 ± 0.1 µM | 1.85 ± 0.09 µM | CCCCCCOc1ccc(C(=O)CCN2CCOCC2)cc1 [Compound 1, 1-(4-(hexyloxy)phenyl)-3-morpholinopropan-1-one]
2 | 1.58 ± 0.1 µM | 1.61 ± 0.07 µM | 1.55 ± 0.13 µM | 1.62 ± 0.15 µM | 1.64 ± 0.09 µM | CCCCCCCOc1ccc(C(=O)CCN2CCOCC2)cc1 [Compound 2, 1-(4-(heptyloxy)phenyl)-3-morpholinopropan-1-one]
3 | 2.75 ± 0.09 µM | 2.6 ± 0.1 µM | 3.07 ± 0.09 µM | 2.53 ± 0.15 µM | 3 ± 0.17 µM | CCCCCCOc1ccc(C(=O)CCN2CCCCC2)cc1 [Compound 3, 1-(4-(hexyloxy)phenyl)-3-(piperidin-1-yl)propan-1-one]
4 | 2.78 ± 0.13 µM | 3.01 ± 0.15 µM | 3 ± 0.15 µM | 3.03 ± 0.07 µM | 2.93 ± 0.08 µM | CCCCCCCOc1ccc(C(=O)CCN2CCCCC2)cc1 [Compound 4, 1-(4-(heptyloxy)phenyl)-3-(piperidin-1-yl)propan-1-one]
5 | 1.61 ± 0.08 µM | 1.48 ± 0.09 µM | 1.6 ± 0.05 µM | 1.45 ± 0.06 µM | 1.55 ± 0.1 µM | CCCCCCCOc1ccc(C(=O)CCN2CCN(C)CC2)cc1 [Compound 5, 1-(4-(heptyloxy)phenyl)-3-(4-methylpiperazin-1-yl)propan-1-one]
6 | 8.25 ± 0.12 µM | 8 ± 0.07 µM | 8 ± 0.1 µM | 8.5 ± 0.08 µM | 8.2 ± 0.1 µM | CCCCCSc1ccc(C(=O)CCN2CCOCC2)cc1 [Compound 6, 3-morpholino-1-(4-(pentylthio)phenyl)propan-1-one]
7 | 0.56 ± 0.2 µM | 0.5 ± 0.2 µM | 0.49 ± 0.11 µM | 0.5 ± 0.2 µM | 0.53 ± 0.09 µM | CCCCCCSc1ccc(C(=O)CCN2CCOCC2)cc1 [Compound 7, 1-(4-(hexylthio)phenyl)-3-morpholinopropan-1-one]
8 | 0.63 ± 0.08 µM | 0.66 ± 0.12 µM | 0.57 ± 0.08 µM | 0.55 ± 0.09 µM | 0.6 ± 0.05 µM | CCCCCCCSc1ccc(C(=O)CCN2CCOCC2)cc1 [Compound 8, 1-(4-(heptylthio)phenyl)-3-morpholinopropan-1-one]
9 | 1.73 ± 0.09 µM | 1.8 ± 0.06 µM | 1.66 ± 0.1 µM | 1.75 ± 0.04 µM | 1.85 ± 0.14 µM | CCCCCSc1ccc(C(=O)CCN2CCCCC2)cc1 [Compound 9, 1-(4-(pentylthio)phenyl)-3-(piperidin-1-yl)propan-1-one]
10 | 1.8 ± 0.11 µM | 1.8 ± 0.09 µM | 1.7 ± 0.05 µM | 1.87 ± 0.07 µM | 1.67 ± 0.05 µM | CCCCCCSc1ccc(C(=O)CCN2CCCCC2)cc1 [Compound 10, 1-(4-(hexylthio)phenyl)-3-(piperidin-1-yl)propan-1-one]
11 | 0.49 ± 0.07 µM | 0.56 ± 0.06 µM | 0.59 ± 0.01 µM | 0.5 ± 0.04 µM | 0.54 ± 0.09 µM | CCCCCCCSc1ccc(C(=O)CCN2CCCCC2)cc1 [Compound 11, 1-(4-(heptylthio)phenyl)-3-(piperidin-1-yl)propan-1-one]
12 | 14.54 ± 0.12 µM | 11.85 ± 0.07 µM | 12.95 ± 0.05 µM | 12.2 ± 0.11 µM | 13.17 ± 0.12 µM | CCCCCSc1ccc(C(=O)CCN2CCN(C)CC2)cc1 [Compound 12, 3-(4-methylpiperazin-1-yl)-1-(4-(pentylthio)phenyl)propan-1-one]
13 | 0.6 ± 0.12 µM | 0.65 ± 0.01 µM | 0.59 ± 0.06 µM | 0.65 ± 0.01 µM | 0.67 ± 0.09 µM | CCCCCCSc1ccc(C(=O)CCN2CCN(C)CC2)cc1 [Compound 13, 1-(4-(hexylthio)phenyl)-3-(4-methylpiperazin-1-yl)propan-1-one]
14 | 0.52 ± 0.1 µM | 0.47 ± 0.1 µM | 0.5 ± 0.09 µM | 0.44 ± 0.06 µM | 0.45 ± 0.07 µM | CCCCCCCSc1ccc(C(=O)CCN2CCN(C)CC2)cc1 [Compound 14, 1-(4-(heptylthio)phenyl)-3-(4-methylpiperazin-1-yl)propan-1-one]
15 | 0.5 ± 0.065 µM | 0.55 ± 0.08 µM | 0.5 ± 0.08 µM | 0.5 ± 0.15 µM | 0.5 ± 0.17 µM | CCCCCCCc1ccc(C(=O)CCN2CCOCC2)cc1 [Compound 24, 1-(4-heptylphenyl)-3-morpholinopropan-1-one]
16 | 1.5 ± 0.1 µM | 1.65 ± 0.75 µM | 1.55 ± 0.09 µM | 1.5 ± 0.08 µM | 1.6 ± 0.1 µM | CCCCCCCc1ccc(C(=O)CCN2CCCCC2)cc1 [Compound 25, 1-(4-heptylphenyl)-3-(piperidin-1-yl)propan-1-one]
17 | 0.95 ± 0.06 µM | 0.9 ± 0.05 µM | 0.8 ± 0.07 µM | 0.85 ± 0.06 µM | 0.75 ± 0.13 µM | CCCCCCCc1ccc(C(=O)CCN2CCN(C)CC2)cc1 [Compound 26, 1-(4-heptylphenyl)-3-(4-methylpiperazin-1-yl)propan-1-one]

Row | SMILES | IC50 [1] | IC50 [2] | IC50 [3] | IC50 [4] | IC50 [5]
18 | CCCCC[Se]c1ccc(C(=O)CCN2CCOCC2)cc1 [Compound 15, 3-morpholino-1-(4-(pentylselenyl)phenyl)propan-1-one] | 12.2 ± 0.08 µM | 13.9 ± 0.14 µM | 11.11 ± 0.07 µM | 14.2 ± 0.17 µM | 15.71 ± 0.13 µM
19 | CCCCCC[Se]c1ccc(C(=O)CCN2CCOCC2)cc1 [Compound 16, 1-(4-(hexylselenyl)phenyl)-3-morpholinopropan-1-one] | 2.6 ± 0.1 µM | 2.58 ± 0.09 µM | 2.62 ± 0.08 µM | 2.53 ± 0.09 µM | 2.47 ± 0.06 µM
20 | CCCCCCC[Se]c1ccc(C(=O)CCN2CCOCC2)cc1 [Compound 17, 1-(4-(heptylselenyl)phenyl)-3-morpholinopropan-1-one] | 0.5 ± 0.1 µM | 0.55 ± 0.07 µM | 0.6 ± 0.07 µM | 0.55 ± 0.04 µM | 0.5 ± 0.06 µM
21 | CCCCC[Se]c1ccc(C(=O)CCN2CCCCC2)cc1 [Compound 18, 1-(4-(pentylselenyl)phenyl)-3-(piperidin-1-yl)propan-1-one] | 8.3 ± 0.08 µM | 7.9 ± 0.1 µM | 7.5 ± 0.15 µM | 8.5 ± 0.15 µM | 8 ± 0.1 µM
22 | CCCCCC[Se]c1ccc(C(=O)CCN2CCCCC2)cc1 [Compound 19, 1-(4-(hexylselenyl)phenyl)-3-(piperidin-1-yl)propan-1-one] | 11.98 ± 0.11 µM | 13.01 ± 0.12 µM | 12.48 ± 0.12 µM | 10.1 ± 0.08 µM | 11.65 ± 0.06 µM
23 | CCCCCCC[Se]c1ccc(C(=O)CCN2CCCCC2)cc1 [Compound 20, 1-(4-(heptylselenyl)phenyl)-3-(piperidin-1-yl)propan-1-one] | 1.73 ± 0.09 µM | 1.75 ± 0.1 µM | 1.74 ± 0.05 µM | 1.7 ± 0.05 µM | 1.68 ± 0.13 µM
24 | CCCCC[Se]c1ccc(C(=O)CCN2CCN(C)CC2)cc1 [Compound 21, 3-(4-methylpiperazin-1-yl)-1-(4-(pentylselenyl)phenyl)propan-1-one] | 13.6 ± 0.09 µM | 14.23 ± 0.14 µM | 15.57 ± 0.03 µM | 14.16 ± 0.09 µM | 13.88 ± 0.13 µM
25 | CCCCCC[Se]c1ccc(C(=O)CCN2CCN(C)CC2)cc1 [Compound 22, 1-(4-(hexylselenyl)phenyl)-3-(4-methylpiperazin-1-yl)propan-1-one] | 8 ± 0.06 µM | 8.1 ± 0.07 µM | 8.1 ± 0.1 µM | 8.15 ± 0.07 µM | 8.2 ± 0.07 µM
26 | CCCCCCC[Se]c1ccc(C(=O)CCN2CCN(C)CC2)cc1 [Compound 23, 1-(4-(heptylselenyl)phenyl)-3-(4-methylpiperazin-1-yl)propan-1-one] | 1.69 ± 0.08 µM | 1.7 ± 0.09 µM | 1.7 ± 0.05 µM | 1.77 ± 0.05 µM | 1.75 ± 0.09 µM
